# According to patent US12441726B2, “Compounds and uses thereof” (Foghorn Therapeutics Inc., priority 2020, dated 2025):
# Experiments:
# [1] = molecular target: BRM (Homo sapiens, UniProt P51531); experiment: ATPase catalytic activity assay (ADP-Glo), BRM; settings: 30 nM BRM, 400 μM ATP; for IC50: BRM ATPase: IC50 (uM)
# [2] = molecular target: BRG-1 (Homo sapiens, UniProt P51532); experiment: ATPase catalytic activity assay (ADP-Glo), BRG-1; settings: for Emax: 1 h, read-out: BRG1 Max % Inhibition, ADP-Glo, 30 nM BRG-1, 400 μM ATP
# BRG-1, sequence (P51532 whole entry): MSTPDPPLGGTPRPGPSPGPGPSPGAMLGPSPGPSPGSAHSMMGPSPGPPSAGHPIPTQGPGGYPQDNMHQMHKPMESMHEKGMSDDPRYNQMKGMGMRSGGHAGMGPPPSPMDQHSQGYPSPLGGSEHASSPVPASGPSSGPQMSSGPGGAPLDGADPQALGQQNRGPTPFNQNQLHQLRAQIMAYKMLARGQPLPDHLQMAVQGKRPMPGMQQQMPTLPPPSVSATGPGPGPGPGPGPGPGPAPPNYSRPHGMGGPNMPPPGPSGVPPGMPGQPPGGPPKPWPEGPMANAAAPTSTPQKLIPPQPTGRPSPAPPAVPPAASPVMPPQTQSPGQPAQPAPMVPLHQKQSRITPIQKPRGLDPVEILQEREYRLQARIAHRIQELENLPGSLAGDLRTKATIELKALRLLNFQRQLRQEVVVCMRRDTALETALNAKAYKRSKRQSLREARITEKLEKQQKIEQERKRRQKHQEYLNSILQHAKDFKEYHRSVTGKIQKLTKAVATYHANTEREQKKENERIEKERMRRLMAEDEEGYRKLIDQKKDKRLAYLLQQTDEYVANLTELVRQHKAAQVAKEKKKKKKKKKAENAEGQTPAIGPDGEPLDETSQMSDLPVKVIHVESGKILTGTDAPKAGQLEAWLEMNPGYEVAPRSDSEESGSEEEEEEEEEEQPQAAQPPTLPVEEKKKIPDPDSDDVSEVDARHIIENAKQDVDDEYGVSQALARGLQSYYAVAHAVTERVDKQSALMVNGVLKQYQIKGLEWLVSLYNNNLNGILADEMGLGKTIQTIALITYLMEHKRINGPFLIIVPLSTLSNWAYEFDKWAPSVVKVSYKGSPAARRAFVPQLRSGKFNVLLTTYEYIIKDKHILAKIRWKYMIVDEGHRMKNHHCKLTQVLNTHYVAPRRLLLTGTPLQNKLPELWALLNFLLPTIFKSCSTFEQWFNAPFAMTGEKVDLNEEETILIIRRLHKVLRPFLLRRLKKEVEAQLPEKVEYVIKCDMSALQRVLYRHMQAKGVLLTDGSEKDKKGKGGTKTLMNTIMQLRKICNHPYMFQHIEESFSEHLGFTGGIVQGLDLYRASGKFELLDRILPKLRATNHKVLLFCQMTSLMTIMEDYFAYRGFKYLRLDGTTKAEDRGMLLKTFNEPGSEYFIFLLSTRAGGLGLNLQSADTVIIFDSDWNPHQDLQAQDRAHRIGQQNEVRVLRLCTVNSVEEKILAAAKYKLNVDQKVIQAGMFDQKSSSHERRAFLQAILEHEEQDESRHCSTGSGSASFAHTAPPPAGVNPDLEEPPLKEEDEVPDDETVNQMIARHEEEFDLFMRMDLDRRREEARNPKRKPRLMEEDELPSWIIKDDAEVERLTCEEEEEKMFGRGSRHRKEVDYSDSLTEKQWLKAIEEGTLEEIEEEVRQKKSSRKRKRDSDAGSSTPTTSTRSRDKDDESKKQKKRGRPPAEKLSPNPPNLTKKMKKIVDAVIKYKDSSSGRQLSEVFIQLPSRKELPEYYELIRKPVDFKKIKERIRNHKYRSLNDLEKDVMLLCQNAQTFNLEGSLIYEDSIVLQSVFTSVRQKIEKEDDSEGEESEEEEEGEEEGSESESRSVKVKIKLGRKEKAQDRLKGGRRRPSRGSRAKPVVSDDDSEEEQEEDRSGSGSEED
# Method: The ATPase catalytic activity of BRM or BRG-1 was measured by an in vitro biochemical assay using ADP-Glo™ (Promega, V9102). The ADP-Glo™ kinase assay is performed in two steps once the reaction is complete. The first step is to deplete any unconsumed ATP in the reaction. The second step is to convert the reaction product ADP to ATP, which will be utilized by the luciferase to generate luminesce and be detected by a luminescence reader, such as Envision.
# Then following addition of 5 μL of ADP-Glo™ Reagent provided in the kit, the reaction incubates at room temperature for 40 minutes. Then 10 μL of Kinase Detection Reagent provided in the kit is added to convert ADP to ATP, and the reaction incubates at room temperature for 60 minutes. Finally, luminescence measurement is collected with a plate-reading luminometer, such as Envision.
# BRM, sequence (P51531 whole entry): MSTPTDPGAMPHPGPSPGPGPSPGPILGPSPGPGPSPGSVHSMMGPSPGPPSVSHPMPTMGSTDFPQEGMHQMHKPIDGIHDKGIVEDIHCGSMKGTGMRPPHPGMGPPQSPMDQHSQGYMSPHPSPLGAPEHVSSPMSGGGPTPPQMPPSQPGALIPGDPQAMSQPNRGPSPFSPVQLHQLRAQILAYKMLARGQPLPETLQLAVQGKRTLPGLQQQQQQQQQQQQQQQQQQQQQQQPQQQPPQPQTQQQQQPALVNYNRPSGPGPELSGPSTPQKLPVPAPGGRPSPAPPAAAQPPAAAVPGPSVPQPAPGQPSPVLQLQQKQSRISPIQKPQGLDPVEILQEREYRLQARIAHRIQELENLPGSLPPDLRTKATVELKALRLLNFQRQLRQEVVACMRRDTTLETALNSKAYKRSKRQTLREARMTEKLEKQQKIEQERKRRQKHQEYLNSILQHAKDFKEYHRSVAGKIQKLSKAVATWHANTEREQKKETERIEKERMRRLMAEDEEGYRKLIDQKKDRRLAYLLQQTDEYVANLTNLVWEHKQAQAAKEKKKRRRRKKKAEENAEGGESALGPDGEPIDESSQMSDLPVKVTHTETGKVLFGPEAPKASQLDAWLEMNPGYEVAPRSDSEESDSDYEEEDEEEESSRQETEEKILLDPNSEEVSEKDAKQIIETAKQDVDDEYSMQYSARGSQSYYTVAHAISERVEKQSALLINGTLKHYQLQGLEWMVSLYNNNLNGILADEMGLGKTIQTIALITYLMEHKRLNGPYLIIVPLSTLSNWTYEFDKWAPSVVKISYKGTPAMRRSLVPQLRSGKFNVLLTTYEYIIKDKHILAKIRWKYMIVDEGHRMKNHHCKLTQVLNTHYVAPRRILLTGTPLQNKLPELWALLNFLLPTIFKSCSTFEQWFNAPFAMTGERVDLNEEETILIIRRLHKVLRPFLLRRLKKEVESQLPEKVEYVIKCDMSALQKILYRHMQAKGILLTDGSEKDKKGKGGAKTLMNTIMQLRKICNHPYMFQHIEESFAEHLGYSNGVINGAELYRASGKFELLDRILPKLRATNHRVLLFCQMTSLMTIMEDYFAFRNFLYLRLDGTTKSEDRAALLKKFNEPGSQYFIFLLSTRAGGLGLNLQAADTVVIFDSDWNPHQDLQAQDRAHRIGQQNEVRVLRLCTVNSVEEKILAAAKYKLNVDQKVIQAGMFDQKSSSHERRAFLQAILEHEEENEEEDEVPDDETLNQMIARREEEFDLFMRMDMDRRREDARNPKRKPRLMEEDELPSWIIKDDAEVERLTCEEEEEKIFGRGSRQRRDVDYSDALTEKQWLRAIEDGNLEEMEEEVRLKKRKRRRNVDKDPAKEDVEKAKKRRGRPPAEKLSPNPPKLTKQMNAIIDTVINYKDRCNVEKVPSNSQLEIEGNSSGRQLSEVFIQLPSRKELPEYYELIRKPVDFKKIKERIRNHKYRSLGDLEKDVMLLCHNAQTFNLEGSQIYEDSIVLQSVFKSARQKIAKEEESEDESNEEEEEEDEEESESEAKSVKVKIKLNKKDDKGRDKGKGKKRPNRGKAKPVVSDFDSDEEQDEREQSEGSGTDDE
SMILES,BRM Max % Inhibition [1] [%],IC50 [1] [µM],IC50 [2] [nM],Emax [2] [%]
C[C@@]1(C#N)COCc2ccc(C(=O)NCc3cc4nc(-c5cccnc5)ccc4cn3)cc21 [Compound 114],86,0.5 to 1,> 1000,42
C[C@@]1(CO)COCc2ccc(C(=O)NCc3cc4nc(-c5ccccc5)sc4cn3)cc21 [Compound 115],84,> 1,> 1000,19
C[C@@]1(C#N)CCNc2ccc(C(=O)NCc3cc4nc(-c5ccccc5)ccc4cn3)cc21 [Compound 116],76,> 1,> 1000,22
C[C@@]1(C#N)COc2ccc(C(=O)NCc3cc4nc(-c5ccccc5)sc4cn3)cc21 [Compound 117],74,> 1,> 1000,27
C[C@@]1(C#N)CCOc2ccc(C(=O)NCc3cc4nc(-c5ccccc5)sc4cn3)cc21 [Compound 118],89,> 1,> 1000,40
C[C@@]1(O)COCc2ccc(C(=O)NCc3cc4nc(-c5ccccc5)sc4cn3)cc21 [Compound 119],81,> 1,> 1000,18
C[C@@]1(C#N)CCNc2ccc(C(=O)NCc3cc4nc(-c5ccccc5)sc4cn3)cc21 [Compound 120],8,> 1,> 1000,0
COC(=O)N1CCCC(c2ccc3cnc(CNC(=O)c4ccc5c(c4)[C@](C)(C#N)COC5)cc3n2)C1 (some centres unmarked) [Compound 121],81,> 1,> 1000,44
C[C@@]1(C#N)COCc2ncc(C(=O)NCc3cc4nc(-c5ccccc5)ccc4cn3)cc21 [Compound 122],94,0.1 to 0.5,> 1000,62
C[C@@]1(C#N)COCc2ccc(C(=O)NCc3cc4cc(-c5ccccc5)ccc4cn3)cc21 [Compound 123],96,0.1 to 0.5,> 1000,74
C[C@@]1(C#N)COCc2ccc(C(=O)NCc3cc4nc(-c5ccccc5)sc4cn3)cc21 [Compound 124],97,< 0.1,> 1000,98
Cc1cc2c(-c3ccc4cnc(CNC(=O)c5ccc6c(c5)[C@](C)(C#N)COC6)cc4n3)ccc(F)c2n1C [Compound 129],100,< 0.1,< 100,98
C[C@@]1(C#N)COCc2ccc(C(=O)NCc3ncc4ccc(-c5cncc(C6CC6)n5)nc4c3F)cc21 [Compound 130],97,< 0.1,100 to 500,90
COCCn1c(C)cc2c(-c3ccc4cnc(CNC(=O)c5ccc6c(c5)[C@](C)(C#N)COC6)cc4n3)cccc21 [Compound 133],102,< 0.1,< 100,98
CCc1cc2c(-c3ccc4cnc(CNC(=O)c5ccc6c(c5)[C@](C)(C#N)COC6)cc4n3)cccc2n1C [Compound 134],101,< 0.1,< 100,97
C[C@@]1(C#N)COCc2ccc(C(=O)NCc3cc4nc(-c5cn(C6COC6)nc5CC(F)F)ccc4cn3)cc21 [Compound 136],83,0.1 to 0.5,> 1000,25
Cn1cc(F)c2c(-c3ccc4cnc(CNC(=O)c5ccc6c(c5)[C@](C)(C#N)COC6)cc4n3)cccc21 [Compound 138],101,< 0.1,100 to 500,94
Cn1c(C(F)F)cc2c(-c3ccc4cnc(CNC(=O)c5ccc6c(c5)[C@](C)(C#N)COC6)cc4n3)cccc21 [Compound 139],100,< 0.1,100 to 500,94
COc1nn(C2CC2(F)F)cc1-c1ccc2cnc(CNC(=O)c3ccc4c(c3)[C@](C)(C#N)COC4)cc2n1 (some centres unmarked) [Compound 140],94,0.1 to 0.5,500 to 1000,48
COCc1cc2c(-c3ccc4cnc(CNC(=O)c5ccc6c(c5)[C@](C)(C#N)COC6)cc4n3)cccc2n1C [Compound 141],100,< 0.1,100 to 500,96
C[C@@]1(C#N)COCc2ccc(C(=O)NCc3cc4cc(-n5cc(F)c(N6CCC6)n5)ccc4nn3)cc21 [Compound 142],98,< 0.1,100 to 500,88
C[C@@]1(F)COCc2ccc(C(=O)NCc3cc4nc(-c5cccc(N6CCCC6=O)n5)cnc4cn3)cc21 [Compound 143],103,< 0.1,100 to 500,89

# Continued, values first:
BRM Max % Inhibition [1] [%],IC50 [1] [µM],IC50 [2] [nM],Emax [2] [%],SMILES
94,0.1 to 0.5,> 1000,55,C[C@@]1(C#N)COCc2ccc(C(=O)NCc3cc4nc(-c5cccc(C#N)c5)ccc4cn3)cc21 [Compound 112]
79,> 1,> 1000,32,Cn1ccc(-c2ccc3cnc(CNC(=O)c4ccc5c(c4)[C@](C)(C#N)COC5)cc3n2)n1 [Compound 113]
98,0.1 to 0.5,500 to 1000,86,C[C@@]1(C#N)COCc2ccc(C(=O)NCc3cc4nc(-c5ccc(N6CCC6)cc5)ccc4cn3)cc21 [Compound 125]
95,0.1 to 0.5,> 1000,51,C[C@@]1(C#N)COCc2ccc(C(=O)NCc3cc4nc(-c5cccc(N6CCC6)c5)ccc4cn3)cc21 [Compound 126]
96,< 0.1,500 to 1000,74,COc1cc(C2CCC2)ccc1-c1ccc2cnc(CNC(=O)c3ccc4c(c3)[C@](C)(C#N)COC4)cc2n1 [Compound 127]
82,0.1 to 0.5,> 1000,39,COCCN1CCC(c2cccc(-c3ccc4cnc(CNC(=O)c5ccc6c(c5)[C@](C)(C#N)COC6)cc4n3)n2)CC1 [Compound 128]
83,0.1 to 0.5,> 1000,25,CN1CCC(c2cccc(-c3ccc4cnc(CNC(=O)c5ccc6c(c5)[C@](C)(C#N)COC6)cc4n3)n2)CC1 [Compound 131]
97,0.1 to 0.5,500 to 1000,71,COCCN1CCN(c2cccc(-c3ccc4cnc(CNC(=O)c5ccc6c(c5)[C@](C)(C#N)COC6)cc4n3)n2)CC1 [Compound 132]
103,< 0.1,< 100,98,Cn1c(C2CC2)cc2c(-c3ccc4cnc(CNC(=O)c5ccc6c(c5)[C@](C)(C#N)COC6)cc4n3)cccc21 [Compound 135]
88,0.1 to 0.5,> 1000,39,CC1(c2nccc(-c3ccc4cnc(CNC(=O)c5ccc6c(c5)[C@](C)(C#N)COC6)cc4n3)n2)COC1 [Compound 137]
